According to patent US20250324971A1, “HERBICIDAL DERIVATIVES” (SYNGENTA CROP PROTECTION AG, priority 2022, published 2025):

Assays:
Assay type in all cases: in vivo
[1] = tested on: Amaranthus retoflexus (AMARE); test: Post-Emergence Test (herbicidal, glasshouse pots); settings: evaluated after 13 days
Description: (§1) Seeds of a variety of test species are sown in standard soil in pots (Setaria faberi (SETFA), Ipomoea hederacea (IPOHE), Echinochloa crus-galli (ECHCG), (Amaranthus retoflexus (AMARE), Zea mays (ZEAMX), and Amaranthus palmeri (AMAPA)). After 8 days cultivation under controlled conditions in a glasshouse (at 24° C./16° C., day/night; 14 hours light; 65% humidity), the plants arm sprayed with an aqueous spray solution derived from the formulation of the technical active ingredient in acetone/water (50:50) solution containing 0.5% Tween 20 (polyoxyethylene sorbitan monolaurate, CAS RN 9005-84-5). Rate of application is shown in g/ha in the tables below. The test plants are then grown in a glasshouse under controlled conditions in a glasshouse (at 24° C./16° C., day/night; 14 hours light; 65% humidity) and watered twice daily. After 13 days the test is evaluated for the percentage damage caused to the plant. The biological activities are shown in the following table on a five-point scale (5=81-100%; 4=61-80%; 3=41-60%; 2=21-40%; 1=0-20%; -=not tested).

[2] = tested on: Echinochloa crus-galli (ECHCG); test: Post-Emergence Test (herbicidal, glasshouse pots); settings: evaluated after 13 days
Description: as §1

[3] = tested on: Amaranthus palmeri (AMAPA); test: Post-Emergence Test (herbicidal, glasshouse pots); settings: evaluated after 13 days
Description: as §1

[4] = tested on: Ipomoea hederacea (IPOHE); test: Post-Emergence Test (herbicidal, glasshouse pots); settings: evaluated after 13 days
Description: as §1

[5] = tested on: Zea mays (ZEAMX); test: Post-Emergence Test (herbicidal, glasshouse pots); settings: evaluated after 13 days
Description: as §1

[6] = tested on: Amaranthus palmeri (AMAPA); test: Pre-Emergence Test (herbicidal, glasshouse pots); settings: rate 1000 g/ha, evaluated after 13 days, five-point scale
[7] = tested on: Amaranthus retoflexus (AMARE); test: Pre-Emergence Test (herbicidal, glasshouse pots); settings: rate 1000 g/ha, evaluated after 13 days, five-point scale
[8] = tested on: Ipomoea hederacea (IPOHE); test: Pre-Emergence Test (herbicidal, glasshouse pots); settings: rate 1000 g/ha, evaluated after 13 days, five-point scale
[9] = tested on: Echinochloa crus-galli (ECHCG); test: Pre-Emergence Test (herbicidal, glasshouse pots); settings: rate 1000 g/ha, evaluated after 13 days, five-point scale
[10] = tested on: Zea mays (ZEAMX); test: Pre-Emergence Test (herbicidal, glasshouse pots); settings: rate 1000 g/ha, evaluated after 13 days, five-point scale

| Compound | Post-Emergence Test AMARE percentage damage (five-point scale) ([1]; rate 250 g/ha) | Post-Emergence Test ECHCG percentage damage (five-point scale) ([2]; rate 250 g/ha) | Post-Emergence Test AMAPA percentage damage (five-point scale) ([3]; rate 250 g/ha) | Post-Emergence Test IPHOE percentage damage (five-point scale) ([4]; rate 250 g/ha) | Post-Emergence Test ZEAMX percentage damage (five-point scale) ([5]; rate 250 g/ha) | percentage damage caused to the plant, AMAPA [6] | percentage damage caused to the plant, AMARE [7] | Post-Emergence Test AMARE percentage damage (five-point scale) ([1]; rate 1000 g/ha) | Post-Emergence Test ECHCG percentage damage (five-point scale) ([2]; rate 1000 g/ha) | Post-Emergence Test AMAPA percentage damage (five-point scale) ([3]; rate 1000 g/ha) | Post-Emergence Test IPHOE percentage damage (five-point scale) ([4]; rate 1000 g/ha) | Post-Emergence Test ZEAMX percentage damage (five-point scale) ([5]; rate 1000 g/ha) | percentage damage caused to the plant, IPHOE [8] | percentage damage caused to the plant, ECHCG [9] | percentage damage caused to the plant, ZEAMX [10] |
| --- | --- | --- | --- | --- | --- | --- | --- | --- | --- | --- | --- | --- | --- | --- | --- |
| CCn1c(Nc2ccccc2F)cc(=O)c(C(=O)O)c1-c1ccc(Cl)c(Cl)c1 [Compound 1, 2-(3,4-dichlorophenyl)-1-ethyl-6-(2-fluoroanilino)-4-oxo-pyridine-3-carboxylic acid] | 1 (1=0-20%) | 0 | 1 (1=0-20%) | 2 (2=21-40%) | 0 |  |  |  |  |  |  |  |  |  |  |
| CCn1c(OC)cc(=O)c(C(=O)O)c1-c1ccc(Cl)c(Cl)c1 [Compound 5, 2-(3,4-dichlorophenyl)-1-ethyl-6-methoxy-4-oxo-pyridine-3-carboxylic acid] | 0 | 3 (3=41-60%) | 0 | 3 (3=41-60%) | 2 (2=21-40%) |  |  |  |  |  |  |  |  |  |  |
| CCn1c(Sc2ccc(F)cc2)cc(=O)c(C(=O)O)c1-c1ccc(Cl)c(Cl)c1 [Compound 10, 2-(3,4-dichlorophenyl)-1-ethyl-6-(4-fluorophenyl)sulfanyl-4-oxo-pyridine-3-carboxylic acid] |  |  |  |  |  | 0 | 1 (1=0-20%) | 1 (1=0-20%) | 2 (2=21-40%) | 1 (1=0-20%) | 2 (2=21-40%) | 1 (1=0-20%) | 2 (2=21-40%) | 2 (2=21-40%) | 0 |
| CCn1c(Oc2ccc(OC)cc2)cc(=O)c(C(=O)O)c1-c1ccc(Cl)c(Cl)c1 [Compound 11, 2-(3,4-dichlorophenyl)-1-ethyl-6-(4-methoxyphenoxy)-4-oxo-pyridine-3-carboxylic acid] |  |  |  |  |  | 1 (1=0-20%) | 2 (2=21-40%) | 5 (5=81-100%) | 1 (1=0-20%) | 5 (5=81-100%) | 3 (3=41-60%) | 2 (2=21-40%) | 5 (5=81-100%) | 0 | 1 (1=0-20%) |
| CCn1c(Oc2cccc(F)c2)cc(=O)c(C(=O)O)c1-c1ccc(Cl)c(Cl)c1 [Compound 12, 2-(3,4-dichlorophenyl)-1-ethyl-6-(3-fluorophenoxy)-4-oxo-pyridine-3-carboxylic acid] |  |  |  |  |  | 4 (4=61-80%) | 4 (4=61-80%) | 5 (5=81-100%) | 4 (4=61-80%) | 5 (5=81-100%) | 5 (5=81-100%) | 4 (4=61-80%) | 5 (5=81-100%) | 5 (5=81-100%) | 4 (4=61-80%) |
| CCn1c(Oc2cc(Cl)cc(Cl)c2)cc(=O)c(C(=O)O)c1-c1ccc(Cl)c(Cl)c1 [Compound 16, 6-(3,5-dichlorophenoxy)-2-(3,4-dichlorophenyl)-1-ethyl-4-oxo-pyridine-3-carboxylic acid] |  |  |  |  |  |  |  | 2 (2=21-40%) | 1 (1=0-20%) | 1 (1=0-20%) | 2 (2=21-40%) | 1 (1=0-20%) |  |  |  |
| CCn1c(Nc2ccc(C3CC3)cc2)cc(=O)c(C(=O)O)c1-c1ccc(Cl)c(Cl)c1 [Compound 22] |  |  |  |  |  | 0 | 1 (1=0-20%) |  |  |  |  |  | 0 | 0 | 0 |
| CCn1c(Oc2ccc(Cl)cc2Cl)cc(=O)c(C(=O)O)c1-c1ccc(Cl)c(Cl)c1 [Compound 24, 6-(2,4-dichlorophenoxy)-2-(3,4-dichlorophenyl)-1-ethyl-4-oxo-pyridine-3-carboxylic acid] |  |  |  |  |  |  |  | 1 (1=0-20%) | 0 | 1 (1=0-20%) | 1 (1=0-20%) | 1 (1=0-20%) |  |  |  |
| CCn1c(Oc2cc(Cl)cc(OC)c2)cc(=O)c(C(=O)O)c1-c1ccc(Cl)c(Cl)c1 [Compound 25, 6-(3-chloro-5-methoxy-phenoxy)-2-(3,4-dichlorophenyl)-1-ethyl-4-oxo-pyridine-3-carboxylic acid] |  |  |  |  |  |  |  | 1 (1=0-20%) | 0 | 1 (1=0-20%) | 1 (1=0-20%) | 0 |  |  |  |
| CCn1c(Nc2ccc(Cl)cc2F)cc(=O)c(C(=O)O)c1-c1ccc(Cl)c(Cl)c1 [Compound 29, 6-(4-chloro-2-fluoro-anilino)-2-(3,4-dichlorophenyl)-1-ethyl-4-oxo-pyridine-3-carboxylic acid] |  |  |  |  |  |  |  | 2 (2=21-40%) | 0 | 2 (2=21-40%) | 3 (3=41-60%) | 0 |  |  |  |
| CCn1c(Nc2cccc(Cl)n2)cc(=O)c(C(=O)O)c1-c1ccc(Cl)c(Cl)c1 [Compound 30, 6-[(6-chloro-2-pyridyl)amino]-2-(3,4-dichlorophenyl)-1-ethyl-4-oxo-pyridine-3-carboxylic acid] |  |  |  |  |  |  |  | 2 (2=21-40%) | 0 | 2 (2=21-40%) | 2 (2=21-40%) | 1 (1=0-20%) |  |  |  |
| CCn1c(Nc2cccc(C)n2)cc(=O)c(C(=O)O)c1-c1ccc(Cl)c(Cl)c1 [Compound 32, 2-(3,4-dichlorophenyl)-1-ethyl-6-[(6-methyl-2-pyridyl)amino]-4-oxo-pyridine-3-carboxylic acid] |  |  |  |  |  |  |  | 4 (4=61-80%) | 2 (2=21-40%) | 3 (3=41-60%) | 1 (1=0-20%) | 1 (1=0-20%) |  |  |  |
